Source: the RepoRT retention time repository (doi:10.1016/j.aca.2011.12.065)
Where a name gives a salt, the structure may show the parent alone.

Legend:
[1] = RP, Waters ACQUITY UPLC BEH C18, 100 × 2.1 mm, 1.7 µm; A: water + 0.1% formic acid, pH 3; B: 80% acetonitrile + 20% acetone + 0.1% formic acid, pH 3; gradient (min/%B) 0/0 6/100; details: stereoisomer not certain
[2] = RP, Waters ACQUITY UPLC HSS T3, 100 × 2.1 mm, 1.8 µm; A: water + 0.1% formic acid, pH 3; B: 30% methanol + 70% acetonitrile + 0.1% formic acid, pH 3; gradient (min/%B) 0.0/5 1.0/8 2.0/15 3.0/40 4.0/70 4.5/100 5.0/100 6.4/100 6.6/5.0 6.8/5.0 7.0/5.0; details: stereoisomer not certain

Compound	LC retention time [1] [min]	LC retention time [2] [min]
O=c1[nH]cc(C2OC(CO)C(O)C2O)c(=O)[nH]1 (stereo not drawn)	1.16	0.743
NC(CCCNC1=NCC(=O)N1)C(=O)O (stereo not drawn)	0.561	0.459
CC1NC(=NCCCC(N)C(=O)O)NC1=O (stereo not drawn)	0.585	0.484
Nc1c(O)cccc1C(=O)CC(N)C(=O)O (racemic) [3-hydroxy-dl-kynurenine]	1.03	0.786
NC(CCCC(=O)O)C(=O)O (racemic) [dl-2-aminoadipic acid]	0.657	0.51
O=C(O)C(O)Cc1c[nH]c2ccccc12 (racemic) [dl-3-indolelactic acid]	2.13	3.52
CN1C(=O)CCC1c1cccnc1 (single isomer, unassigned; (-)) [(-)-Cotinine]	1.26	0.793
Cn1c(=O)[nH]c2ncn(C)c2c1=O [1,7-dimethylxanthine]	1.45	2.56
Cn1cnc(C[C@H](N)C(=O)O)c1 [1-Methyl-L-Histidine]	0.531	0.425
Cn1cnc2c(ncn2C2OC(CO)C(O)C2O)c1=N (stereo not drawn) [1-methyladenosine]	1.3	1.63
Cn1c(=O)[nH]c2[nH]c(=O)[nH]c2c1=O [1-methyluric acid]	1.28	1.27
NC(CCCC(N)C(=O)O)C(=O)O (stereo not drawn) [2,6-diaminopimelic acid]	0.543	0.44
Nc1ccn(C2OC(CO)C(O)C2O)c(=S)n1 (stereo not drawn) [2-thiocytidine dihydrate]	0.986	0.619
CC(C)(O)CC(=O)O [3-hydroxy-3-methyl butanoic acid]	1.44	1.63
Cn1c(=N)ccn(C2OC(CO)C(O)C2O)c1=O (stereo not drawn) [3-methylcytidine methosulfate]	0.986	0.619
Cn1c(=O)[nH]c(=O)c2[nH]cnc21 [3-methylxanthine]	1.28	1.45
CC(=O)Nc1ccc(C(=O)O)cc1 [4-acetamidobenzoic acid]	1.71	3.23
O=Cc1ccc(O)cc1 [4-hydroxybenzaldehyde]	1.91	3.3
Cc1cn(C2OC(CO)C(O)C2O)c(=O)nc1N (stereo not drawn) [5-methylcytidine]	1.28	1.18
COc1cc2c(CCNC(C)=O)c[nH]c2cc1O [6-hydroxymelatonin]	1.81	3.4
Cn1c[n+](C2OC(CO)C(O)C2O)c2nc(N)[nH]c(=O)c21 (stereo not drawn) [7-methylguanosine]	1.17	0.688
O=C(O)C(O)Cc1ccc(O)cc1 (stereo not drawn) [(DL)-p-hydroxyphenyllactic acid]	1.54	2.66
Nc1ncnc2nc[nH]c12 [Adenine]	0.685	0.538
Nc1ncnc2c1ncn2C1OC(CO)C(O)C1O (stereo not drawn) [Adenosine]	1.34	0.857
O=C(O)CCCCC(=O)O [Adipic acid]	1.5	2.33
O=C(O)CCCCCCCC(=O)O [Azelaic acid]	2.26	3.63
CC(NCCCCC(N)C(=O)O)C(=O)O (stereo not drawn) [CEL]	0.571	0.459

Compound	LC retention time [1] [min]	LC retention time [2] [min]
Cn1c(=O)c2c(ncn2C)n(C)c1=O [Caffeine]	1.65	3.13
CC(CCC(=O)O)C1CCC2C3C(O)CC4CC(O)CCC4(C)C3CC(O)C12C (stereo not drawn) [Cholic acid]	3.4	4.46
O=C(O)CC(O)(CC(=O)O)C(=O)O [Citric acid]	0.785	0.659
NC(=O)NCCCC(N)C(=O)O (stereo not drawn) [Citrulline]	0.575	0.47
CC12CCC(=O)C=C1CCC1C2C(=O)CC2(C)C1CCC2(O)C(=O)CO (stereo not drawn) [Cortisone]	2.61	3.84
CN1CC(=O)NC1=N [Creatinine]	0.572	0.467
CC(O)C1NC(=O)C2CCCN2C1=O (stereo not drawn) [Cyclic(pro-thr)]	1.37	1.54
CC(CCC(=O)O)C1CCC2C3CCC4CC(O)CCC4(C)C3CC(O)C12C (stereo not drawn) [Deoxycholic acid]	3.94	4.62
NC(CCCCNC(=O)CO)C(=O)O (stereo not drawn) [GALA ((2s)-2-amino-6-(2-hydroxy-acetylamino)-hexanoic acid)]	0.676	0.527
O=C(O)CCCC(=O)O [Glutaric acid]	1.37	1.32
O=C(O)CNC(=O)c1ccccc1 [Hippuric acid]	1.77	3.1
CC(C(=O)O)C(=O)O [Methylmalonic acid]	1.27	0.539
CC1(O)CCOC(=O)C1 (stereo not drawn) [Mevalonolactone]	1.38	1.19
CN(C)CC(=O)O [N,N-dimethylglycine]	0.572	0.47
CSCCC(NC(=O)Cc1ccccc1)C(=O)O (stereo not drawn) [N-phenylacetyl-methionine]	2.58	3.79
O=C(O)Cc1ccccc1 [Phenylacetic acid]	1.19	0.861
O=C(O)CCCCCC(=O)O [Pimelic acid]	1.72	3.17
O=C(O)C1CCCN1 (stereo not drawn) [Proline]	0.626	0.506
O=C1CCC(C(=O)O)N1 (stereo not drawn) [Pyroglutamic acid]	0.836	0.731
Cc1cc2nc3c(=O)[nH]c(=O)nc-3n(CC(O)C(O)C(O)CO)c2cc1C (stereo not drawn) [Riboflavin]	1.68	3.38
NCCS(=O)(=O)O [Taurine]	0.556	0.47
CCCc1oc(CCC(=O)O)c(C(=O)O)c1C [cmpf]	–	4.08
CC(C)C1NC(=O)C2CCCN2C1=O (stereo not drawn) [cyclo-(pro-val)]	–	3.1
OCC(O)C(O)C(O)C(O)CO (stereo not drawn) [d(-)-mannitol]	–	0.483
O=C(O)C(O)c1ccc(O)c(O)c1 (stereo not drawn) [dihydroxymandelic acid]	–	0.829
NCCc1ccc(O)c(O)c1 [dopamine]	–	0.712
CNCC(O)c1ccc(O)c(O)c1 (stereo not drawn) [epinephrine]	–	0.564

Compound	LC retention time [1] [min]	LC retention time [2] [min]
NCCCC(=O)O [gamma-aminobutyric acid]	–	0.491
CC(CCC(=O)NCC(=O)O)C1CCC2C3C(O)CC4CC(OC5OC(C(=O)O)C(O)C(O)C5O)CCC4(C)C3CCC12C (stereo not drawn) [glycochenodeoxycholic acid 3-glucuronide]	–	4.34
O=C(O)C1OC(Oc2ccc(O)cc2)C(O)C(O)C1O (stereo not drawn) [hydroquinone-glucuronide]	–	0.91
CS(=O)CCCN=C=S (stereo not drawn) [iberin]	–	3.24
O=C(Cc1c[nH]c2ccccc12)OC1OC(C(=O)O)C(O)C(O)C1O (stereo not drawn) [indole-3-acetic acid-glucuronide]	–	3.46
O=C(O)CNC(=O)C=Cc1c[nH]c2ccccc12 [indole-3-acryloylglycine]	–	3.56
O=C(OC1OC(C(=O)O)C(O)C(O)C1O)c1c[nH]c2ccccc12 (stereo not drawn) [indole-3-carboxylic acid glucuronide]	–	3.42
CC(C)CC(=O)NCC(=O)O [isovalerylglycine]	–	2.74
CC12C=Cc3occc3C1CCC13CC(CCC12)C(O)(CO)C3 (stereo not drawn) [kahweol]	–	3.81
c1coc(CNc2ncnc3nc[nH]c23)c1 [kinetin]	–	3.03
C[N+](C)(C)CC(O)CC(=O)[O-] (stereo not drawn) [l-carnitine inner salt]	–	0.457
O=c1cc(-c2ccc(O)c(O)c2)oc2cc(O)cc(O)c12 [luteolin]	–	3.75
C[NH+]1CC(O)CC1C(=O)[O-] (stereo not drawn) [n-methyl-4-hydroxyproline]	–	0.498
CCCCCCCC(=O)OC1OC(C(=O)O)C(O)C(O)C1O (stereo not drawn) [octanoic acid glucuronide]	–	3.92
CCCCCCCCC=CCCCCCCCC(N)=O [oleamide]	–	4.81
CCC=CCC=CCC=CCC=CCC=CCC=CCCC(=O)OC(COC(=O)CCCCCCCCCCCCCCCCC)COP(=O)([O-])OCC[N+](C)(C)C (stereo not drawn) [pc(18:0/22:6)]	–	5.51
C=C(C)C1CC=C(C(=O)O)CC1 (stereo not drawn) [perillic acid]	–	3.81
O=C(O)CNC(=O)Cc1ccccc1 [phenylacetylamino-acetic acid]	–	3.38
O=C(O)C1CCCCN1 (stereo not drawn) [pipecolinic acid]	–	0.62
C[N+]1(C)CCCC1C(=O)[O-] (stereo not drawn) [proline betaine]	–	0.543
O=C(O)c1ccc[nH]1 [pyrrole-2-carboxylic acid]	–	2.61
O=c1c(O)c(-c2ccc(O)c(O)c2)oc2cc(O)cc(O)c12 [quercetin]	–	3.74
CC(=O)NC(CSC(=S)NCCCCS(C)=O)C(=O)O (stereo not drawn) [sulforaphane-n-acetylcysteine]	–	3.24
CC12CCC(=O)C=C1CCC1C2CCC2(C)C(O)CCC12 (stereo not drawn) [testosterone]	–	4.32
O=C(O)/C=C/c1cccc(O)c1 [trans-3-hydroxycinnamic acid]	–	3.53
CC(C)C(N)C(=O)O (stereo not drawn) [valine]	–	0.546
